{"source": "patent US20040180103A1", "about": "“Use of plants of the genus hypericum for facilitating the synchronization of a circadian rhythm” (priority 2001, published 2004)", "origin": "cited, not measured here", "tested_on": "circadian rhythms in Siberian hamsters", "conditions": "5 h phase shift under daily administration", "data": [{"compound": "COc1ccc2[nH]cc(CCNC(C)=O)c2c1", "note": "[melatonin]", "values": [{"measurement": "share of animals that adapt to the new light-dark cycle", "value": 71, "unit": "%"}]}]}
